# Read-outs that look alike come from different tables or passages of the source.
# Tested on: SSTR2 mutants
# Assay: NanoBiT β-arrestin 1 recruitment assay, HEK293 (SSTR2 mutants);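 on Emax: percent of the maximal wild-type SSTR2 response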;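 on Top: percent of maximal wild-type response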
# Assay type: cell-based, human
# Design: Bottom / Span / Bottom (best-fit) / Span (best-fit) / Best-fit values Bottom / Best-fit values Span / Bottom (best-fit value) / Span (best-fit value):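 percent of maximal wild-type response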
# Settings: for EC50: read-out: EC50
# Procedure: The NanoBiT β-arrestin 1 recruitment assays were carried out according to the method described previously. […] Human full-length SSTR wild-type and mutant vectors were C-terminally fused with a 15-amino acid flexible linker and the small fragment (SmBiT). HEK293 cells were seeded into six-well microplates at a density of 1.0 × 10^6 cells/well and cultured for 24 h at 37 °C with 5% CO2. After that, cells were co-transfected with pcDNA3.1+ vectors encoding SSTR wild-type or mutants and human β-arrestin 1. After transfecting for 24 h, the transfected cells were suspended and seeded into white 96-well plates, and then cultured at 37 °C overnight. After that the medium in each well was exchanged for 90 μl of 0.01% bovine serum albumin containing 20 μl of 50 μM coelenterazine h (Carbosynth) diluted in the HBSS assay buffer and incubated for 40 min at room temperature. Then, ligands diluted in the assay buffer was added to each well and the luminescence intensity was measured using the Synergy H1 microplate reader and detected at room temperature in a time period. All data presented are means of at least three independent experiments.
# [1] = best-fit value, T194A-1 (run 1)
# [2] = best-fit value, T194A-2 (run 2)
# [3] = best-fit value, T194A-3 (run 3)
# [4] = best-fit value, V103A-1 (run 1)
# [5] = best-fit value, V103A-2 (run 2)
# [6] = best-fit value, V103A-3 (run 3)
# [7] = β-arrestin recruitment, SSTR2 F127(3.37)A, n=3
# [8] = β-arrestin recruitment, SSTR2 I195(45.52)A, n=3, ND = not detected
# [9] = β-arrestin recruitment, SSTR2 I284ECL3A, n=3
# [10] = β-arrestin recruitment, SSTR2 L290(7.31)A, n=3
# [11] = β-arrestin recruitment, SSTR2 P286ECL3A, n=3
# [12] = β-arrestin recruitment, SSTR2 S279(6.58)A, n=3
# [13] = β-arrestin recruitment, SSTR2 S285ECL3A, n=3
# [14] = β-arrestin recruitment, SSTR2 T287ECL3A, n=3
# [15] = β-arrestin recruitment, SSTR2 V103(2.64)A, n=3, ND = not detected
# [16] = β-arrestin recruitment, SSTR2 W188ECL3A, n=3
# [17] = β-arrestin recruitment, SSTR2 W269(6.48)A, n=3
# [18] = β-arrestin recruitment, SSTR2 Y50(1.39)A, n=3
# [19] = β-arrestin recruitment, SSTR2 Y205(5.35)A, n=3
# [20] = β-arrestin recruitment, SSTR2 Y302(7.43)A, n=3
smiles,measurement,setting,value
C[C@@H](O)[C@@H]1NC(=O)[C@H](CCCCN)NC(=O)[C@@H](Cc2c[nH]c3ccccc23)NC(=O)[C@H](Cc2ccccc2)NC(=O)[C@@H](NC(=O)[C@H](N)Cc2ccccc2)CSSC[C@@H](C(=O)N[C@H](CO)[C@@H](C)O)NC1=O [octreotide],LogEC50,"best-fit value, L99A-3 (run 3)",-6.902
same,Span,"best-fit value, L99A-3 (run 3)",131.2
same,Top,"best-fit value, L99A-3 (run 3)",128.3
same,LogEC50,[1],-7.278
same,Span,[1],56.43
same,EC50,[1],52.8 nM
same,LogEC50,[2],-7.381
same,Span,[2],55.9
same,EC50,[2],41.6 nM
same,LogEC50,[3],-7.29
same,Span,[3],56.81
same,EC50,[3],51.3 nM
same,Bottom,[4],-1.867
same,LogEC50,[4],-7.141
same,Span,[4],86.59
same,Top,[4],84.73
same,EC50,[4],72.2 nM
same,Bottom,[5],-2.214
same,LogEC50,[5],-7.263
same,Span,[5],87.54
same,Top,[5],85.33
same,EC50,[5],54.6 nM
same,Bottom,[6],-2.646
same,LogEC50,[6],-7.193
same,Span,[6],87.08
same,Top,[6],84.44
same,EC50,[6],64.1 nM
same,Bottom,"best-fit value, Y50A-1 (run 1)",-0.1631
same,LogEC50,"best-fit value, Y50A-1 (run 1)",-8.742
same,Span,"best-fit value, Y50A-1 (run 1)",56.29
same,Top,"best-fit value, Y50A-1 (run 1)",56.13
same,EC50,"best-fit value, Y50A-1 (run 1)",1.81 nM
same,Bottom,"best-fit value, Y50A-2 (run 2)",-2.513
same,LogEC50,"best-fit value, Y50A-2 (run 2)",-7.952
same,Span,"best-fit value, Y50A-2 (run 2)",74.92
same,Top,"best-fit value, Y50A-2 (run 2)",72.41
same,EC50,"best-fit value, Y50A-2 (run 2)",11.2 nM
same,Bottom,"best-fit value, Y50A-3 (run 3)",-0.965
same,LogEC50,"best-fit value, Y50A-3 (run 3)",-8.796
same,Span,"best-fit value, Y50A-3 (run 3)",58.15
same,Top,"best-fit value, Y50A-3 (run 3)",57.19
same,EC50,"best-fit value, Y50A-3 (run 3)",1.6 nM
same,Bottom,"best-fit, I284A-1",2.896
same,LogEC50,"best-fit, I284A-1",-7.134
same,Span,"best-fit, I284A-1",74.77
same,Top,"best-fit, I284A-1",77.67
same,EC50,"best-fit, I284A-1",73.4 nM
same,Bottom,"best-fit, I284A-2",-1.923
same,LogEC50,"best-fit, I284A-2",-7.815
same,Span,"best-fit, I284A-2",108.7
same,Top,"best-fit, I284A-2",106.8
same,EC50,"best-fit, I284A-2",15.3 nM
same,Bottom,"best-fit, I284A-3",2.808
same,LogEC50,"best-fit, I284A-3",-7.106
same,Span,"best-fit, I284A-3",79.8
same,Top,"best-fit, I284A-3",82.61
same,EC50,"best-fit, I284A-3",78.4 nM
same,LogEC50,"best-fit, P286A-1",-8.053
same,Span,"best-fit, P286A-1",62.29
same,Top,"best-fit, P286A-1",66.68
same,EC50,"best-fit, P286A-1",8.86 nM
same,Bottom,"best-fit, P286A-2",2.819
same,LogEC50,"best-fit, P286A-2",-8.168
same,Span,"best-fit, P286A-2",59.43
same,Top,"best-fit, P286A-2",62.25
same,EC50,"best-fit, P286A-2",6.79 nM
same,Bottom,"best-fit, P286A-3",4.198
same,LogEC50,"best-fit, P286A-3",-8.213
same,Span,"best-fit, P286A-3",84.87
same,Top,"best-fit, P286A-3",89.07
same,EC50,"best-fit, P286A-3",6.12 nM
same,Bottom,"best-fit, S285A-1",2.2
same,LogEC50,"best-fit, S285A-1",-9.537
same,Span,"best-fit, S285A-1",70
same,Top,"best-fit, S285A-1",72.2
same,EC50,"best-fit, S285A-1",0.29 nM
same,Bottom,"best-fit, S285A-2",3.756
same,LogEC50,"best-fit, S285A-2",-9.426
same,Span,"best-fit, S285A-2",71.47
same,Top,"best-fit, S285A-2",75.22
same,EC50,"best-fit, S285A-2",0.375 nM
same,Bottom,"best-fit, S285A-3",9.309
same,LogEC50,"best-fit, S285A-3",-8.736
same,Span,"best-fit, S285A-3",80.53
same,Top,"best-fit, S285A-3",89.84
same,EC50,"best-fit, S285A-3",1.84 nM
same,Bottom,"best-fit, T194A-1",-0.5401
same,Top,"best-fit, T194A-1",55.89
same,Bottom,"best-fit, T194A-2",-0.9576
same,Top,"best-fit, T194A-2",54.95
same,Bottom,"best-fit, T194A-3",-0.591
same,Top,"best-fit, T194A-3",56.22
same,Bottom,"best-fit, T287A-1",4.198
same,LogEC50,"best-fit, T287A-1",-8.213
same,Span,"best-fit, T287A-1",84.87
same,Top,"best-fit, T287A-1",89.07
same,EC50,"best-fit, T287A-1",6.12 nM
same,Bottom,"best-fit, T287A-2",5.592
same,LogEC50,"best-fit, T287A-2",-8.324
same,Span,"best-fit, T287A-2",86.73
same,Top,"best-fit, T287A-2",92.33
same,EC50,"best-fit, T287A-2",4.75 nM
same,Bottom,"best-fit, T287A-3",0.1327
same,LogEC50,"best-fit, T287A-3",-8.522
same,Span,"best-fit, T287A-3",80.53
same,Top,"best-fit, T287A-3",80.66
same,EC50,"best-fit, T287A-3",3 nM
same,LogEC50,"best-fit, W188A-1",-8.611
same,Span,"best-fit, W188A-1",57.05
same,Top,"best-fit, W188A-1",61.7
same,EC50,"best-fit, W188A-1",2.45 nM
same,Bottom,"best-fit, W188A-2",0.0794
same,LogEC50,"best-fit, W188A-2",-8.245
same,Span,"best-fit, W188A-2",81.84
same,Top,"best-fit, W188A-2",81.92
same,EC50,"best-fit, W188A-2",5.69 nM
same,Bottom,"best-fit, W188A-3",6.02
same,LogEC50,"best-fit, W188A-3",-8.295
same,Span,"best-fit, W188A-3",58.94
same,Top,"best-fit, W188A-3",64.96
same,EC50,"best-fit, W188A-3",5.07 nM
same,Emax,"β-arrestin recruitment, I130A, earlier manuscript version quoted by reviewer, superseded",60%
same,Emax,"β-arrestin recruitment, SSTR2 D295(7.36)A, detected at 10 μM, n=3",119.20±34.68 %WT
same,EC50,"β-arrestin recruitment, SSTR2 D295(7.36)A, n=3",319 ± 6.78 nM
same,Emax,[7],52.62±2.57 %WT
same,EC50,[7],4.33 ± 1.53 nM
same,Emax,"β-arrestin recruitment, SSTR2 F208(5.38)A, n=3",75.93±9.81 %WT
same,EC50,"β-arrestin recruitment, SSTR2 F208(5.38)A, n=3, ND = not detected",163 ± 6.17 nM
same,Emax,"β-arrestin recruitment, SSTR2 F265(6.44)A, detected at 10 μM, n=3 octreotide, 4 paltusotine",67.17±9.75 %WT
same,Emax,"β-arrestin recruitment, SSTR2 I130(3.40)A, detected at 10 μM, n=3",76.52±9.52 %WT
same,Emax,[8],59.10±0.47 %WT
same,EC50,[8],54.3 ± 4.1 nM
same,Emax,[9],89.03±9.00 %WT
same,EC50,[9],55.7 ± 2.03 nM
same,Emax,"β-arrestin recruitment, SSTR2 L99(2.60)A, n=3",96.13±25.27 %WT
same,EC50,"β-arrestin recruitment, SSTR2 L99(2.60)A, n=3, ND = not detected",91.6 ± 3.34 nM
same,Emax,[10],85.66±1.04 %WT
same,EC50,[10],1.8 nM
same,Emax,"β-arrestin recruitment, SSTR2 P220(5.50)A, n=3",61.16±16.24 %WT
same,EC50,"β-arrestin recruitment, SSTR2 P220(5.50)A, n=3 octreotide, 4 paltusotine, ND = not detected",99.8 ± 9 nM
same,Emax,[11],76.51±12.11 %WT
same,EC50,[11],6.35 ± 1.59 nM
same,Emax,"β-arrestin recruitment, SSTR2 Q102(2.63)A, detected at 10 μM, n=3",57.95±5.20 %WT
same,Emax,[12],87.86±7.76 %WT
same,EC50,[12],11.9 ± 4.76 nM
same,Emax,[13],79.09±5.45 %WT
same,EC50,[13],0.84 nM
same,Emax,"β-arrestin recruitment, SSTR2 T194(45.51)A, n=3",55.69±0.38 %WT
same,EC50,"β-arrestin recruitment, SSTR2 T194(45.51)A, n=3, ND = not detected",48.7 ± 3.38 nM
same,Emax,[14],87.90±2.95 %WT
same,EC50,[14],4.71 ± 8.35 nM
same,Emax,[15],84.83±0.26 %WT
same,EC50,[15],63.7 ± 5.11 nM
same,Emax,[16],69.46±6.21 %WT
same,EC50,[16],4.34 ± 9.5 nM
same,Emax,[17],33.36±2.81 %WT
same,EC50,[17],55.3 ± 1.35 nM
same,Emax,[18],61.91±5.26 %WT
same,EC50,[18],4.87 ± 3.17 nM
same,Emax,[19],108.30±13.91 %WT
same,EC50,[19],8.52 ± 5.74 nM
same,Emax,[20],109.40±18.82 %WT
same,EC50,[20],1.82 nM
